This note sets out measurements from patent US12529017B2, “Detergent composition comprising a lipase” (Novozymes A/S, priority 2020, dated 2026).

A short description of the experiment: Butyric acid release (odor) from lipase washed butter swatches by SPME-GC, Model E1 detergent. As to the method: The butyric acid release (odor) from the lipase washed swatches were measured by Solid Phase Micro Extraction Gas Chromatography (SPME-GC) using the following method.
40 mL of Model E1 detergent wash liquor was added to a 50 mL test tube. CS-10 butter swatches (CFT) were prepared from 5×5 cm swatches as round punch-outs with a 2-cm diameter. The butter swatches were prepared using methods similar to those described in Example 1. Lipase and methyl ricinoleate (Sigma-Aldrich R8750) were added to the tubes according to the table below, followed by the addition of 10 steel balls and 2 CS-10 swatches per tube. The tubes were continuously agitated at 40 rpm for 25 minutes at 20° C. The samples were then rinsed with cold water for 5 min and finally dried on filter paper for 16 hours.
The dried CS-10 swatches were transferred to Gas Chromatograph (GC) vials, which were then sealed. The samples were incubated at 30° C. for 24 hours, heated to 140° C. for 30 minutes, and stored at 20-25° C. for at least 4 hours before analysis. The analyses were performed on a Shimadzu Nexis GC-2030 equipped with a Carboxen PDMS SPME fiber (85 μm). Sampling from each GC vial was performed at 50° C. for 8 minutes with the SPME fiber in the head-space over the textile pieces as the sampled compounds were subsequently injected onto the column (injector temperature=250° C. Column flow=2 mL helium/minute. Column over temperature gradient: 0 minute=50° C., 2 minutes=50° C., 6 minutes 45 seconds=240° C.). Detection was performed using a Flame Ionization Detector (FID). Retention time for butyric acid was identified using an authentic standard. The area of each peak was measured and compared to the area of the reference peak (Lipase 2, no methyl ricinoleate). The data presents the peak sizes as the % peak size relative to the corresponding peak size from the Lipase 2 alone wash conditions. The experiment was performed twice. The Coefficient of Variation (CV) was 5%.

For `CCCCCC[C@@H](O)C/C=C\CCCCCCCC(=O)OC` [Methyl ricinoleate, methyl ricinoleate], the “Butyric acid peak size normalized to lipase alone (%)” value came to 88% (methyl ricinoleate 1 mM, with Lipase 2, 25 minutes at 20° C.); 0% (methyl ricinoleate 1 mM, without Lipase 2, 25 minutes at 20° C.); 89% (methyl ricinoleate 5 mM, with Lipase 2, 25 minutes at 20° C.); 0% (methyl ricinoleate 5 mM, without Lipase 2, 25 minutes at 20° C.).

B1: Lipase 2: Thermomyces lanuginosus lipase (TLL) SEQ ID NO: 1 with substitutions E1C+D27R+G38A+F51V+D96E+K981+D111A+G163K+H198S+Y220F+T231R+N233C+D254S+P256T (Novozymes A/S) (protein, listed as Thermomyces lanuginosus)
chain: CVSQDLFNQFNLFAQYSAAAYCGKNNRALAGTNITCTANACPEVEKADATVLYSFEDSGVGDVTGFLALDNTNKLIVLSFRGSRSIENWIGNLNFELIEINDICSGCRGHAGFTSSWRSVADTLRQKVEDAVREHPDYRVVFTGHSLGGALATVAGADLRGNKYDIDVFSYGAPRVGNRAFAEFLTVQTGGTLYRITSTNDIVPRLPPREFGYSHSSPEFWIKSGTLVLVRRCDIVKIEGIDATGGNNQPNIPSITAHLWYFGLIGTCL
modifications: mat_peptide (1)..(269)
Take B1: the “Butyric acid peak size normalized to lipase alone (%)” value (Lipase 2 alone, no methyl ricinoleate (reference peak), 25 minutes at 20° C.) is on record as 100%.
